Measurements as given in US20070212449A1, “Reduction of the titratable acidity and the prevention of tooth and other bone degeneration” (priority 2006, published 2007).

Experiments:
MG-63 osteoblast cells = experiment: MTT-based proliferation assay, osteoblast cells; type: cell-based, human
Method: (§1) Human osteoblast MG-63 cells and HS-883 osteoclast cells were treated with IP6 in vitro and their abilities to proliferate and differentiate were evaluated by MTT-based cytotoxicity assay (for proliferation) and alkaline phosphatase (ALP) and matrixmetalloproteinase-2 (MMP-2), activity for differentiation of bone cells.
(§2) In an additional study, osteoblast MG-63 human osteosarcoma cells and osteoclast HS-883.T human bone giant sarcoma cells were cultured in Eagle's Minimum Essential Medium, in Eagle's Balanced Salt Solution with non-essential amino-acids and Dulbecco's Modified Eagles Medium, respectively. Both media were supplemented with 10% fetal bovine serum (FBS) and L-glutamine. Additionally, 1 mM of sodium pyruvate was added to culture media for MG-63 cells.
(§3) Stock solution of 100 mM Na-IP6 was prepared in distilled water, pH adjusted to 7.4, and diluted as needed in culture media.
(§4) Cell growth and proliferation were determined with the MTT-based cytotoxicity assay. Briefly, the MG-63 and HS-883.T cell lines were seeded into 96-well plates at a density 2000 cells per well. […] Cells were allowed to proliferate for 24 or 72 hours. 100 μL of MTT solution at concentration I mg/ml was added at the end of proliferation period to each well and allowed to incubate for 4 hours. The formazan product of MTT reduction was dissolved by adding 150 μL of DMSO. Immediately after, growth changes were evaluated by recording the reduction of MTT at 540 nm in a plate reader using data reduction software for measurement of optical density.

[1] = test system: matrix metalloproteinase-2 (MMP-2); experiment: MMP-2 (gelatinase A) zymography, culture media of osteoblast cells; type: cell-based, human; conditions: for activity of gelatinase A in culture media: osteoblast cells
Method: as §1, with “cells. IP6 activates ALP and MMP-2 expression in osteoblast cells, indicating their better ability to lay new bone.” for “cells.”
(§5) To study the osteoblast and osteoclast differentiation in the presence of IP6, the following markers were evaluated: alkaline phosphatase (ALP), matrix metalloproteinase-2 (MMP-2) and tartrate-resistant acid phosphatase (TRAP).
(§6) To evaluate MMPs activity in culture medium zymography was performed. Cells were plated in tissue culture dishes, allowed to grow to 60 -70% confluence and then were treated with different concentrations of IP6 in serum free media. After 48 hours conditioned media was collected and immediately analyzed for matrix metalloproteinase activity. 10% Polyacrilamide gels were used to perform electrophoresis, following which gels were incubated in renaturating buffer for 30 minutes with gentle agitation. Incubation was continued in developing buffer overnight at 37° C. At the end of incubation time gels were stained with Comassie blue staining solution for 10 minutes, rinsed with destaining solution one (9.2% acetic acid, 45.4% methanol) and incubated with destaining solution two (10% acetic acid and 10% methanol) at room temperature as needed. Proteinase activity was measured using UN-SCAN-IT gel digitizing software for Windows and expressed as percentage according to the amount of determined Pixel average for each band.

[2] = Effect of IP6 and inositol additions on % TA of soft drinks; type: physicochemical
Method: Titratable (total) acidity measures the total or potential acidity and indicates the total number of acid molecules, whereas a pH measurement represents the hydrogen ion concentration. The titratable acidity (as % citric acid) is calculated by titrating the beverage against sodium hydroxide (NaOH) solution to pH 8.2 and using the following relationship: [formula] in accordance with the standard procedures for determining the titratable acidity of a variety of fluids, including milk.

[3] = Enamel dissolution (weight loss of enamel) in soft drinks with or without phytic acid; set-up: species or system human; conditions: for effect on enamel dissolution: addition of 1% phytic acid (FIG. 10)
Method: For instance, studies were performed on sections of enamel removed from extracted human teeth as well as on extracted human teeth that were coated such that only the crown of the tooth (the enamel portion) was exposed to the beverage. […] These enamel specimens were immersed in the various soft drinks with or without additions of 0.5 and 1.0% by weight of dodecasodium salt of phytic acid (Inositol hexaphosphoric acid). The enamel dissolution was determined as the weight loss of the enamel at different time intervals in the untreated and treated beverages, as shown in FIGS. 7 and 8.

[4] = test system: matrix metalloproteinase-2 (MMP-2); experiment: MMP-2 zymography, culture media of osteoclast cells; type: cell-based, human; conditions: 100 and 300 μM of IP6
Method: as §5, §6

[5] = test system: alkaline phosphatase (ALP); experiment: ALP activity in osteoblast cells (differentiation marker); type: cell-based, human; conditions: MG-63 cells
Method: as §1, with “cells. IP6 activates ALP and MMP-2 expression in osteoblast cells, indicating their better ability to lay new bone.” for “cells.”
as §5
ALP activity was measured using a commercially available kit. Osteoblast cells were plated in tissue culture dishes in amount of 4×10^5 cells per plate. […] Incubation was stopped on ice; cells were washed twice with PBS and lysed with 0.25% of Triton X-100. 25 μL of lysate was mixed with 2.5 mL of ALP sample buffer, incubated for 4 or 24 hours in room temperature and absorption was read in a plate reader at λ405 nm.

HS-883 osteoclast cells = experiment: MTT-based proliferation assay, osteoclast cells; type: cell-based, human
Method: as §1, §2, §3, §4

C[C@]12CCC(=O)C=C1CC[C@@H]1[C@@H]2[C@@H](O)C[C@@]2(C)[C@H]1CC[C@]2(O)C(=O)CO [Hydrocortisone, hydrocortisone, reference compound]
reduction of the number of osteoblast cells (MG-63 osteoblast cells; 10 μM hydrocortisone, p < 0.05): 30.5%

O=P(O)(O)O[C@H]1[C@H](OP(=O)(O)O)[C@@H](OP(=O)(O)O)[C@H](OP(=O)(O)O)[C@@H](OP(=O)(O)O)[C@H]1OP(=O)(O)O [IP6, inositol hexaphosphate]
MMP-2 expression in osteoblast cells ([1]; MG-63 cells): activates | activity of gelatinase A in culture media ([1]; 300 μM of IP6): Significant increase of activity | activity of gelatinase A in culture media ([1]; IP6 50 to 300 μM, 48 hours): increased the activity of gelatinase A | effect on titratable acidity ([2]; Fresca, 0.5% addition (FIG. 9)): reduction in titratable acidity | effect on titratable acidity ([2]; Mountain Dew, 1.0% addition (FIG. 9)): reduction in titratable acidity | effect on titratable acidity ([2]; Sprite, 0.5% addition (FIG. 9)): reduction in titratable acidity | effect on enamel dissolution ([3]; 5% lemon juice): reduction in enamel dissolution | effect on enamel erosivity ([3]; Mountain Dew beverage (FIG. 7)): reducing enamel erosivity | effect on enamel dissolution ([3]; Mountain Dew): reduction in enamel dissolution | effect on enamel erosivity ([3]; Red Bull beverage (FIG. 8)): reducing enamel erosivity | pro-MMP-2 and MMP-2 activity [4]: decrease | ALP activity/expression in osteoblast cells [5]: activates | absorbance at 540 nm (MTT), mean ± SD (HS-883 osteoclast cells; 300 μM Na-IP6 + 70 μM inositol with 10 μM hydrocortisone): 0.45 ± 0.02 | absorbance at 540 nm (MTT), mean ± SD (HS-883 osteoclast cells; 300 μM Na-IP6 + 70 μM inositol, no hydrocortisone (control 0.52 ± 0.01)): 0.34 ± 0.02 | proliferation of osteoclast cells (HS-883 osteoclast cells; in vitro IP6 treatment): suppresses the proliferation | absorbance at 540 nM (MTT), mean ± SD (MG-63 osteoblast cells; Na-IP6 50 μM + 70 μM inositol with 10 μM hydrocortisone): 1.73 ± 0.03 | absorbance at 540 nM (MTT), mean ± SD (MG-63 osteoblast cells; Na-IP6 50 μM + 70 μM inositol, no hydrocortisone (control 1.54 ± 0.12)): 1.69 ± 0.09 | effect on hydrocortisone suppression of osteoblast growth/proliferation (MG-63 osteoblast cells; with 10 μM hydrocortisone, 50-300 μM sodium salt of IP6 and 70 μM inositol): opposes the negative effect of hydrocortisone

O=P([O-])([O-])O[C@H]1[C@H](OP(=O)([O-])O)[C@H](OP(=O)([O-])[O-])[C@H](OP(=O)([O-])O)[C@@H](OP(=O)([O-])[O-])[C@@H]1OP(=O)([O-])O.[Na+].[Na+].[Na+].[Na+].[Na+].[Na+].[Na+].[Na+].[Na+] [Na-IP6, dodecasodium inositol hexaphosphate]
% TA ([2]; Fresca, after addition of 0.5 g Ca-Mg IP6 + Inositol or 1 g Na-IP6 (beverage alone 0.46)): 0.0% | % TA ([2]; Red Bull, after addition of 0.5 g Ca-Mg IP6 + Inositol or 1 g Na-IP6 (beverage alone 1.04)): 0.22%
